Each structure is given as a SMILES string.

The test system of one data set is beta amyloid production. In words: Repressor Release Assay (RRA). The conditions noted are these: Conc 20 μg/ml; luciferase activity over diluent control; read-out: APPI Fold Increase. Type of data set: cell-based. In a few lines:
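Read-out is luciferase luminescence (RLU) after 36-48 h duplicate compound exposure of transfected CHO-K1 cells. These cells carry transiently introduced APP-lacI and pRSVO-luc DNA. Diluent control was 25 mM Hepes/1% DMSO; toxicity recorded as binary score (1 non-toxic, 0 toxic).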

Another data set deals with CHO-K1 cells. In words: Toxicity in RRA (loss of luciferase signal). Particulars: Conc 20 μg/ml; toxicity = loss of signal (<0.75 fold increase).

Method for CHO-K1 cells: The beta amyloid inhibitory activity of the compounds of the present invention was determined using the Repressor Release Assay (RRA).
“Fold Increase” refers to the amount of luciferase activity (measured in relative light units) over diluent control. “SEM” refers to the standard error of the mean for fold increase.

Take `CC(C)(C)[C@@H](CO)NS(=O)(=O)c1ccc(Cl)cc1` [Example 277, 4-Chloro-N-[(1S)-1-(hydroxymethyl)-2,2-dimethylpropyl]benzenesulfonamide]: the melting point fell in the range of 128 to 130 °C. Further, the fold induction at 20 µg/mL in the data set on beta amyloid production turned out to be 1.5. Moreover, in the data set on CHO-K1 cells, the “(%)APPI Toxicity” value is 1 (1=non-toxic).

For the compound `CC(C)[C@@H](CO)NS(=O)(=O)c1ccc(Cl)cc1` [Example 274, 4-Chloro-N-[(1S)-1-(hydroxymethyl)-2-methylpropyl]benzenesulfonamide], the melting point is 83 to 85 °C. For the same compound, the fold induction at 20 µg/mL with beta amyloid production amounted to 2.1. Besides, the “(%)APPI Toxicity” value with CHO-K1 cells is 1 (1=non-toxic).

The compound `O=S(=O)(N[C@H](CO)c1ccccc1)c1ccc(Cl)cc1` [Example 273, 4-Chloro-N-[(1S)-2-hydroxy-1-phenylethyl]benzenesulfonamide] registered a melting point of 127 to 128 °C. Besides, the fold induction at 20 µg/mL in the data set on beta amyloid production amounted to 1.5. Also, the “(%)APPI Toxicity” value in the data set with CHO-K1 cells is 1 (1=non-toxic).

Compound `O=S(=O)(N[C@H](CO)C1CCCCC1)c1ccc(Cl)cc1` [Example 272, 4-Chloro-N-[(1S)-1-cyclohexyl-2-hydroxyethyl]benzenesulfonamide] gave a melting point of 115 to 118 °C. Also, the fold induction at 20 µg/mL in the data set on beta amyloid production was found to be 2.3. The “(%)APPI Toxicity” value with CHO-K1 cells is 1 (1=non-toxic).

`CC(C)[C@@H](CO)NS(=O)(=O)c1ccc(Br)cc1` [Example 275, 4-Bromo-N-[(1S)-1-(hydroxymethyl)-2-methylpropyl]benzenesulfonamide] registered a melting point of 89 to 94 °C. The fold induction at 20 µg/mL in the data set on beta amyloid production was found to be 2. Further, the “(%)APPI Toxicity” value with CHO-K1 cells is on record as 1 (1=non-toxic).

Regarding `CC[C@H](C)[C@@H](CO)NS(=O)(=O)c1ccc(I)cc1` [Example 276, 4-Iodo-N-[(1S,2S)-1-(hydroxymethyl)-2-methylbutyl]benzenesulfonamide], the melting point was 118 to 120 °C. In the data set with beta amyloid production, the fold induction at 20 µg/mL was found to be 2. Further, the “(%)APPI Toxicity” value in the data set with CHO-K1 cells is listed as 1 (1=non-toxic).

Usually melting point stands for the temperature of the solid-liquid transition.

Values taken from patent US7166622B2, “Substituted phenylsulfonamide inhibitors of beta amyloid production” (Wyeth, priority 2002, dated 2007).
